Columns and labels:
Homo sapiens [1] = species: Homo sapiens; assay: Selectivity ratio of IC50 for recombinant human full length N-terminal His6-tagged LYN to IC50 for human full length N-terminal His6-tagged BMX
[2] = molecular target: Epidermal growth factor receptor (Homo sapiens, UniProt P00533); assay: Inhibition of recombinant human N-terminal GST-tagged EGFR (696 to end residues) expressed in baculovirus Sf21 insect cells preincubated for 5 mins followed by substrate addition after 30 to 60 mins in presence of ATP by fluorescence assay
Chain of Epidermal growth factor receptor (P00533 whole entry): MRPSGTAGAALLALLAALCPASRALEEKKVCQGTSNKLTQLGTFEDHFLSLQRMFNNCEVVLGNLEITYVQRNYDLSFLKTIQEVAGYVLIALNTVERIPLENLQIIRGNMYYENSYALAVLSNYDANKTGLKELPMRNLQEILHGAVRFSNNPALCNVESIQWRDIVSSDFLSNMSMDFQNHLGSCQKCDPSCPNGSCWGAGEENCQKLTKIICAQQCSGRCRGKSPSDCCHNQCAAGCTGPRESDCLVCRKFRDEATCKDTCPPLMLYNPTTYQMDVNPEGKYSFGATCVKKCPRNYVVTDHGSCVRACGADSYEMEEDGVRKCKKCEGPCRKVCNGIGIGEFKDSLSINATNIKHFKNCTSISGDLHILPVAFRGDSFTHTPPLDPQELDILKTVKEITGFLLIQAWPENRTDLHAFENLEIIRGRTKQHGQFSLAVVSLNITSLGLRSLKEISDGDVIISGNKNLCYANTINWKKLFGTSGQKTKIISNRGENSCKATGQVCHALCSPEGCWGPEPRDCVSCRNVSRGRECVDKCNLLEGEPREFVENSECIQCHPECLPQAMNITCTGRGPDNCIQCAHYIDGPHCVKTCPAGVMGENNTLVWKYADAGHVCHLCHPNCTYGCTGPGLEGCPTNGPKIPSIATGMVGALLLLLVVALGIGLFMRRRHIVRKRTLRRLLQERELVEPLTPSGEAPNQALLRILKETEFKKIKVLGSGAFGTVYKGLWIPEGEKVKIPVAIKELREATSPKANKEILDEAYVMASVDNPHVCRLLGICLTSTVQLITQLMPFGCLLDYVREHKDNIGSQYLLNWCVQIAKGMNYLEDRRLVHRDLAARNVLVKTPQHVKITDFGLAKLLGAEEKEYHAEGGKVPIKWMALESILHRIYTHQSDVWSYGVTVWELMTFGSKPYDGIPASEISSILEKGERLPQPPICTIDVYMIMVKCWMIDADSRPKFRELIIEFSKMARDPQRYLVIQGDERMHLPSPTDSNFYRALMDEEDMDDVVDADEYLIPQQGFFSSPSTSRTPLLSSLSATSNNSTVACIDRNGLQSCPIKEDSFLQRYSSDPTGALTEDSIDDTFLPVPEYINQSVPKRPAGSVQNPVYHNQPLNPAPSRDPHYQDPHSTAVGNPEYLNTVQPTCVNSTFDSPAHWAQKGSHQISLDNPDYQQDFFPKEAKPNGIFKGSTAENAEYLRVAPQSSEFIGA

[3] = molecular target: Ribosomal protein S6 kinase alpha-1 (Homo sapiens, UniProt Q15418); assay: Inhibition of RSK1 (unknown origin) preincubated for 5 mins followed by substrate addition after 30 to 60 mins in presence of ATP by fluorescence assay
Chain of Ribosomal protein S6 kinase alpha-1 (Q15418 whole entry, the tested form may be a part): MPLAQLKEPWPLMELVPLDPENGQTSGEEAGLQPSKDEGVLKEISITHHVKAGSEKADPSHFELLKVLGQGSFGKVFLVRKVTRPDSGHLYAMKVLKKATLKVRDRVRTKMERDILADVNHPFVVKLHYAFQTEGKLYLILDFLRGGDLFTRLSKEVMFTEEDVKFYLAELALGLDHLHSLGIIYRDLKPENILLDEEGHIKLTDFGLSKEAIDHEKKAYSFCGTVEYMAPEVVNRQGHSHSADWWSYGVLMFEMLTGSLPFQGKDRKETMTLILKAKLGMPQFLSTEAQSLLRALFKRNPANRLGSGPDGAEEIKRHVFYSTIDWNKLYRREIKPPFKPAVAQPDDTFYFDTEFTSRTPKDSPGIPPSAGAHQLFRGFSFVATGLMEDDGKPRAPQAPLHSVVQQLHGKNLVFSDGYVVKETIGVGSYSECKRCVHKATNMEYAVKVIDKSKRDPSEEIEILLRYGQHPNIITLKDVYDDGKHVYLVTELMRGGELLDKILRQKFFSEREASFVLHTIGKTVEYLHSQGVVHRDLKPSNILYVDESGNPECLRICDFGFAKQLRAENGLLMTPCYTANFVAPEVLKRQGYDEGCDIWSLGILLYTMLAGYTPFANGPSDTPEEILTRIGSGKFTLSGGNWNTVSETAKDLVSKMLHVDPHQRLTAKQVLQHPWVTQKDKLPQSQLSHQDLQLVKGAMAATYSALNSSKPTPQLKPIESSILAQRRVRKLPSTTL

Homo sapiens [4] = species: Homo sapiens; assay: Selectivity ratio of IC50 for recombinant human N-terminal His6-tagged RIPK2 (1 to 299 residues) to IC50 for human full length N-terminal His6-tagged BMX
[5] = molecular target: Tyrosine-protein kinase Lck (Homo sapiens, UniProt P06239); assay: Inhibition of recombinant human full length N-terminal His6-tagged LCK expressed in Sf21 insect cells preincubated for 5 mins followed by substrate addition after 30 to 60 mins in presence of ATP by fluorescence assay
Chain of Tyrosine-protein kinase Lck (P06239 whole entry): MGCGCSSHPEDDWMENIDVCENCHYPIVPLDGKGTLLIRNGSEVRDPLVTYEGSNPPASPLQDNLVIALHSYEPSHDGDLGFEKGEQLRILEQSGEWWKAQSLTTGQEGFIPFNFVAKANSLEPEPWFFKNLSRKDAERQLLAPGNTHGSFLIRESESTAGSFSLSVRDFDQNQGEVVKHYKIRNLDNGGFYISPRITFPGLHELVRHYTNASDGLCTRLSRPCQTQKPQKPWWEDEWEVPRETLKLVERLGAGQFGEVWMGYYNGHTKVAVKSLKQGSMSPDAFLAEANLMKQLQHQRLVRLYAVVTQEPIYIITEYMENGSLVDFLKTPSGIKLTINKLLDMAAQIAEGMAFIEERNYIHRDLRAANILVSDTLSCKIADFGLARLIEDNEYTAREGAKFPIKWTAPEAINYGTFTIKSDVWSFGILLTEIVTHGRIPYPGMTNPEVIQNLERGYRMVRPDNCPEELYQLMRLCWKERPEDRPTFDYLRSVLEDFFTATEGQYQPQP

HCC827 = assay: Antiproliferative activity against human HCC827 cells harboring EGFR Del19 mutant after 72 hrs by MTT assay; type: functional, cell-based; conditions: HCC827, 72 h
[6] = molecular target: Tyrosine-protein kinase JAK3 (Homo sapiens, UniProt P52333); assay: Inhibition of recombinant human N-terminal His6-tagged JAK3 (781 to end residues) expressed in baculovirus Sf21 insect cells preincubated for 5 mins followed by substrate addition after 30 to 60 mins in presence of ATP by fluorescence assay
Chain of Tyrosine-protein kinase JAK3 (P52333 whole entry): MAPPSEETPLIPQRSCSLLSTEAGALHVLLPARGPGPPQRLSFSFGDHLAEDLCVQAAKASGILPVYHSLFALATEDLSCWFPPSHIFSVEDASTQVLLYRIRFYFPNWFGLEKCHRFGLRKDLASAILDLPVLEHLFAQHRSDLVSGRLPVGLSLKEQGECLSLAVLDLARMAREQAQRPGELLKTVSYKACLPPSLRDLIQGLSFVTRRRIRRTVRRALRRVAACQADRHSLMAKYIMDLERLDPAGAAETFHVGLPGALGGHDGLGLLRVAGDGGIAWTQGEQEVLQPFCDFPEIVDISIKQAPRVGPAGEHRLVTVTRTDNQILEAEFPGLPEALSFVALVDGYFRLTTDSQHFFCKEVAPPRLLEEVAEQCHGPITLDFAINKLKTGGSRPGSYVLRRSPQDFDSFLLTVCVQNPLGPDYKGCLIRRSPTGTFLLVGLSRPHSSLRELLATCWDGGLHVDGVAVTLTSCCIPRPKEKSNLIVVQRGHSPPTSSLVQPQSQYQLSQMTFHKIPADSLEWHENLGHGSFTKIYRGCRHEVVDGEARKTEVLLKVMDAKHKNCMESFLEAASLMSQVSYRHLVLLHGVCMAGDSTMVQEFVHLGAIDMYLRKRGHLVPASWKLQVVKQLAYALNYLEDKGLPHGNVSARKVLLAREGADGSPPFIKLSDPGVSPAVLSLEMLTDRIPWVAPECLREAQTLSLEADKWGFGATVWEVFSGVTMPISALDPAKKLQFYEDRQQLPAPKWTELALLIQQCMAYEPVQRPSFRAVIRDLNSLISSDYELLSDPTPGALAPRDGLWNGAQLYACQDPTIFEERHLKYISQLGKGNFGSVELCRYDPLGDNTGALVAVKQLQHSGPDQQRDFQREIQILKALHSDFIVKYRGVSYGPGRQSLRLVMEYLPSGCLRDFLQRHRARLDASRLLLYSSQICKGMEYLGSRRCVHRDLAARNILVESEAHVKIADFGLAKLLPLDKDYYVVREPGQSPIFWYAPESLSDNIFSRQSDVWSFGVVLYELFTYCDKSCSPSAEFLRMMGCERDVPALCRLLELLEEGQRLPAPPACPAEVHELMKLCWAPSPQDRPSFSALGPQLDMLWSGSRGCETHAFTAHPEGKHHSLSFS

Mus musculus [7] = assay: Toxicity in nude mouse xenografted with human NCI-H1975 cells assessed as adverse effects at 25 mg/kg administered qd via oral gavage for 18 days measured on day 14; type: organism-based; conditions: in vivo, 432 h
Homo sapiens [8] = species: Homo sapiens; assay: Selectivity ratio of IC50 for recombinant human N-terminal His6-tagged FER (541 to end residues) to IC50 for human full length N-terminal His6-tagged BMX
Homo sapiens [9] = species: Homo sapiens; assay: Selectivity ratio of IC50 for recombinant human N-terminal His6-tagged ABL (27 to end residues) to IC50 for human full length N-terminal His6-tagged BMX
Homo sapiens [10] = species: Homo sapiens; assay: Selectivity ratio of IC50 for recombinant human full length N-terminal GST-tagged CSK to IC50 for human full length N-terminal His6-tagged BMX
Homo sapiens [11] = species: Homo sapiens; assay: Selectivity ratio of IC50 for recombinant human N-terminal His6-tagged FRK (218 to end residues) to IC50 for human full length N-terminal His6-tagged BMX
Mus musculus [12] = assay: Toxicity in nude mouse xenografted with human NCI-H1975 cells assessed as body weight loss at 25 mg/kg administered qd via oral gavage measured every 2 days up to 18 days; type: organism-based; conditions: in vivo
Homo sapiens [13] = species: Homo sapiens; assay: Selectivity ratio of IC50 for human PDGFRalpha to IC50 for human full length N-terminal His6-tagged BMX
NCI-H1975 = assay: Antiproliferative activity against human NCI-H1975 cells harboring EGFR L858R/T790M mutant after 72 hrs by MTT assay; type: functional, cell-based; conditions: NCI-H1975, 72 h
Homo sapiens [14] = species: Homo sapiens; assay: Selectivity ratio of IC50 for recombinant human N-terminal His6-tagged TEC (174 to end residues) to IC50 for human full length N-terminal His6-tagged BMX
[15] = molecular target: Tyrosine-protein kinase Tec (Homo sapiens, UniProt P42680); assay: Inhibition of recombinant human N-terminal His6-tagged TEC (174 to end residues) expressed in baculovirus Sf21 insect cells preincubated for 5 mins followed by Ulight-TK peptide substrate addition after 30 to 60 mins in presence of ATP by fluorescence assay
Chain of Tyrosine-protein kinase Tec (P42680 whole entry): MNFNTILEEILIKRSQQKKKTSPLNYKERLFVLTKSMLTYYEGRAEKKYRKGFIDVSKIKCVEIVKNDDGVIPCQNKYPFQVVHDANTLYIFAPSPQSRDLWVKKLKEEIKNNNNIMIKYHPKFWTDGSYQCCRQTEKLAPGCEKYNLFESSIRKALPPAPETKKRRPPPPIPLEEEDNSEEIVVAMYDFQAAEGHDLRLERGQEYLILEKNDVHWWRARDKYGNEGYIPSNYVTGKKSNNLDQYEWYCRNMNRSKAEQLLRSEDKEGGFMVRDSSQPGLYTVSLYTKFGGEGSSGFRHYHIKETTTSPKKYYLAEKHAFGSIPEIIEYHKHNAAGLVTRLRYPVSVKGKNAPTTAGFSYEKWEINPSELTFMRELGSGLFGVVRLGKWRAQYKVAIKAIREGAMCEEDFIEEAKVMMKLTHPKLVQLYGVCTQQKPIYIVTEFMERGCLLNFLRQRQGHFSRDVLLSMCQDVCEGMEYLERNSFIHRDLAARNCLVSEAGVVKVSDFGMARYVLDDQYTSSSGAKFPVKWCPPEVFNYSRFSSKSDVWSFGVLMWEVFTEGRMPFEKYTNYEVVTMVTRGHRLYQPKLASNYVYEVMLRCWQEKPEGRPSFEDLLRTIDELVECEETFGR

Homo sapiens [16] = species: Homo sapiens; assay: Selectivity ratio of IC50 for C-terminal His6-tagged human Her2 (676 to end residues) to IC50 for human full length N-terminal His6-tagged BMX

- Ratio IC50 (Homo sapiens [1]): 8.3
- IC50 [2]: 643 nM
- IC50 [3]: > 10000 nM
- Ratio IC50 (Homo sapiens [4]): 11.3
- IC50 [5]: 195 nM
- IC50 (HCC827): 14 nM
- IC50 [6]: 8160 nM
- Ratio IC50 (Homo sapiens [8]): 166
- Ratio IC50 (Homo sapiens [9]): 22.5
- Ratio IC50 (Homo sapiens [10]): 79.2
- Ratio IC50 (Homo sapiens [11]): 14.3
- Ratio IC50 (Homo sapiens [13]): > 280
- IC50 (NCI-H1975): 920 nM
- Ratio IC50 (Homo sapiens [14]): 3.1
- IC50 [15]: 115 nM
- Ratio IC50 (Homo sapiens [16]): 37.8
Structure (SMILES): C=CS(=O)(=O)N1CCC[C@@H]1Cn1cc(-c2ccc3c(c2)OCO3)c2c(N)ncnc21
- Activity (Mus musculus [7]): Non-Toxic
- Activity (Mus musculus [12]): Toxic

Reference: ChEMBL document CHEMBL4052785, “Discovery of (R)-5-(benzo[d][1,3]dioxol-5-yl)-7-((1-(vinylsulfonyl)pyrrolidin-2-yl)methyl)-7H-pyrrolo[2,3-d]pyrimidin-4-amine (B6) as a potent Bmx inhibitor for the treatment of NSCLC” (Bioorg Med Chem Lett, 2017)
